According to ChEMBL document CHEMBL3046663, “Assessing the effects of three potential chemical repellents to prevent bird damage to corn seeds and seedlings” (Pest Manag Sci, 2013):
Active and inactive are the calls of the source. The calls are words filed in the database; no cut-off is given here.

Key:
Zea mays [1] = assay: Phytotoxicity against Zea mays (maize) seeds assessed as germination rate at 10 degC after 7 days by standard vigour method; assay type: organism-based; settings: in vivo, 168 h
Columba livia [2] = assay: Bird repellent activity against Columba livia f. domestica fed with compound treated maize seeds assessed as feeding deterrence activity at 0.085 ml/kg measured for 4 days by aviary food choice trials; assay type: functional, organism-based
Zea mays [3] = assay: Phytotoxicity against Zea mays (maize) seeds assessed as germination rate at 25 degC after 5-6 days by standard vigour method; assay type: organism-based; settings: in vivo
Columba livia [4] = assay: Bird repellent activity against Columba livia f. domestica assessed as decrease in damage of maize seedlings grown from compound-treated seeds at 0.085 ml/kg measured in the field at 2 to 16 days after germination during field trials; assay type: functional, organism-based
Columba livia [5] = assay: Bird repellent activity against Columba livia f. domestica assessed as decrease in damage of maize seedlings grown from compound-treated seeds at 0.085 ml/kg measured after 3 days exposure during aviary trials; assay type: functional, organism-based
Columba livia [6] = assay: Bird repellent activity against Columba livia f. domestica fed with compound treated maize seeds assessed as feeding deterrence activity at 1 ml/kg by aviary food choice trials; assay type: functional, organism-based
Columba livia [7] = assay: Bird repellent activity against Columba livia f. domestica assessed as decrease in damage of maize seedlings grown from compound-treated seeds at 1.4 ml/kg measured after 3 days exposure during aviary trials; assay type: functional, organism-based
Columba livia [8] = assay: Bird repellent activity against Columba livia f. domestica fed with compound treated maize seeds assessed as feeding deterrence activity at 1.4 ml/kg measured for 4 days by aviary food choice trials; assay type: functional, organism-based
Columba livia [9] = assay: Bird repellent activity against Columba livia f. domestica assessed as decrease in damage of maize seedlings grown from compound-treated seeds at 1.4 ml/kg measured in the field at 2 to 16 days after germination during field trials; assay type: functional, organism-based

Compound	Activity (Zea mays [1])	Activity (Columba livia [2])	Activity (Zea mays [3])	inhibition (Columba livia [4])	inhibition (Columba livia [5])	Activity (Columba livia [6])	inhibition (Columba livia [7])	Activity (Columba livia [8])	inhibition (Columba livia [9])
COC(=O)c1ccccc1N [METHYL ANTHRANILATE]	Non-toxic	Active	Non-toxic	inactive	inactive				
O=C1c2ccccc2C(=O)c2ccccc21 [ANTHRAQUINONE]	Non-toxic		Non-toxic			inactive			
CC(C)=C1CC[C@@H](C)CC1=O [PULEGONE]	Non-toxic		Non-toxic				inactive	Active	inactive
